Test results from patent US20110224213A1, “Use of Glutaric Acid Derivatives or the Pharmaceutically Acceptable Salts Thereof as Anti-Arrhythmic Agents” (priority 2008, published 2011).
Counter-ions that a name gives are not always drawn. Like-named read-outs stand apart in the source and are kept apart here. Marks after values point to notes of the source that are not given here.

Legend:
[1] = test system: aconitic arrhythmia in mice; assay: animal or person; assay type: in vivo
Method: Arrhythmia was reproduced according to the method of Ju. I. Vikhlyayev and N. V. Kaverina (1958) [Kaverina N. V., Berdyaev S. Ju., Kuschuk E. P., Paskhina O. E. Methodical indications in respect to a study of the anti-arrhythmic activity of new pharmacological substances. Manual on experimental (pre-clinical) study of new pharmacological substances. Edited by V. P. Fisenko.—Moscow. 2000. Page 210]. Aconitine nitrate was administered to the animals in a dose of 50 μg/kg intravenously.
(§1) This model makes it possible to assess the scope of the therapeutic action of the presented compounds and the N-succinyl-D,L-tryptophane dipotassium salt. Assessment of the scope of the therapeutic action was carried out in accordance with the value of the anti-arrhythmic index (AAI), determined as the ratio LD50 upon the oral method of administering to ED50 on an aconitic model of arrhythmia.

[2] = test system: adrenal arrhythmia in mice; assay type: in vivo
[3] = test system: occlusive arrhythmia in cats; assay: Early occlusive arrhythmia in cats (coronary artery ligation); details: for effect on experimental lethality: 23% lethality in the control; for anti-arrhythmic effect: dose of 0.05 mg/kg, intravenous
[4] = LD50 upon oral administration in mice; details: mouse, in vivo, per/os
Method: as §1

[5] = mice, dose 0.05 mg/kg, introduced internally
[6] = mice, dose 0.5 mg/kg, introduced internally
[7] = mice, 0.05 and 0.5 mg/kg, introduced internally

O=C([O-])CCC(=O)NC(Cc1c[nH]c2ccccc12)C(=O)[O-].[K+].[K+] (racemic) [N-succinyl-D,L-tryptophane dipotassium salt, reference compound]
animals died after administration of the substance ([1]; per/os, dose of 50 mg/kg, mice): 50%
test animals in which arrhythmia develops ([1]; per/os, interval of doses 0.05-5 mg/kg, mice): 71-100%
Animals lethal (%) [2, 5]: (100%)
Animals with AV blockage (%) [2, 5]: (43%)
Animals with ventricular arrhythmia (%) [2, 5]: (43%)
Lifetime [2, 5]: 16 ± 4 min
Number of animals in groups lethal [2, 5]: 14
Number of animals in groups with AV blockage [2, 5]: 6*
Number of animals in groups with ventricular arrhythmia [2, 5]: 6*
Animals lethal (%) [2, 6]: (100%)
Animals with AV blockage (%) [2, 6]: (57%)
Animals with ventricular arrhythmia (%) [2, 6]: (43%)
Lifetime [2, 6]: 16 ± 4 min
Number of animals in groups lethal [2, 6]: 14
Number of animals in groups with AV blockage [2, 6]: 8
Number of animals in groups with ventricular arrhythmia [2, 6]: 6*
effect on experimental lethality [3]: prevented experimental lethality
Animals died in group ([3]; dose 0.05 mg/kg, intravenously): 0
Animals with ventricular arrhythmia (%) ([3]; dose 0.05 mg/kg, intravenously): 50%
Number of animals with ventricular arrhythmia ([3]; dose 0.05 mg/kg, intravenously): 3
Time of occurrence of arrhythmia ([3]; dose 0.05 mg/kg, intravenously): 19 ± 3 min
Animals died in group ([3]; dose 0.5 mg/kg, intravenously): 0
Animals with ventricular arrhythmia (%) ([3]; dose 0.5 mg/kg, intravenously): 17%
Number of animals with ventricular arrhythmia ([3]; dose 0.5 mg/kg, intravenously): 1
Time of occurrence of arrhythmia ([3]; dose 0.5 mg/kg, intravenously): 21 min
anti-arrhythmic effect [3]: did not demonstrate a reliable anti-arrhythmic effect

O=C(O)CCCC(=O)N[C@@H](Cc1c[nH]c2ccccc12)C(=O)O [Compound II mono-sodium salt, mono-sodium salt N^α-glutaryl-L-tryptophane]
effect on lethality of the test animals [2, 7]: statistically reliably reduced the lethality
Animals lethal (%) [2, 5]: (50%)
Animals with AV blockage (%) [2, 5]: (0%)
Animals with ventricular arrhythmia (%) [2, 5]: (0%)
Lifetime [2, 5]: 22 ± 3.4 min
Number of animals in groups lethal [2, 5]: 7*
Number of animals in groups with AV blockage [2, 5]: 0*
Number of animals in groups with ventricular arrhythmia [2, 5]: 0*
Animals lethal (%) [2, 6]: (50%)
Animals with AV blockage (%) [2, 6]: (36%)
Animals with ventricular arrhythmia (%) [2, 6]: (0%)
Lifetime [2, 6]: 19 ± 2.8 min
Number of animals in groups lethal [2, 6]: 7*
Number of animals in groups with AV blockage [2, 6]: 5*
Number of animals in groups with ventricular arrhythmia [2, 6]: 0*
effect on ventricular ectopic complexes ([2]; mice, introduced internally): elimination of the ventricular ectopic complexes in all of the test animals

O=C(O)CCCC(=O)N[C@@H](Cc1c[nH]c2ccccc12)C(=O)O [Compound II, N^α-glutaryl-L-tryptophane]
Animals lethal (%) [2, 5]: (50%)
Animals with AV blockage (%) [2, 5]: (0%)
Animals with ventricular arrhythmia (%) [2, 5]: (0%)
Lifetime [2, 5]: 22 ± 3.4 min
Number of animals in groups lethal [2, 5]: 7*
Number of animals in groups with AV blockage [2, 5]: 0*
Number of animals in groups with ventricular arrhythmia [2, 5]: 0*
Animals lethal (%) [2, 6]: (50%)
Animals with AV blockage (%) [2, 6]: (29%)
Animals with ventricular arrhythmia (%) [2, 6]: (0%)
Lifetime [2, 6]: 19 ± 2.8 min
Number of animals in groups lethal [2, 6]: 7*
Number of animals in groups with AV blockage [2, 6]: 4*
Number of animals in groups with ventricular arrhythmia [2, 6]: 0*
Animals died in group ([3]; dose 0.05 mg/kg, intravenously): 1
Animals died in group (%) ([3]; dose 0.05 mg/kg, intravenously): 14%
Animals with ventricular arrhythmia (%) ([3]; dose 0.05 mg/kg, intravenously): 86%
Number of animals with ventricular arrhythmia ([3]; dose 0.05 mg/kg, intravenously): 6
Time of occurrence of arrhythmia ([3]; dose 0.05 mg/kg, intravenously): 17 ± 2 min
Animals died in group ([3]; dose 0.5 mg/kg, intravenously): 0
Animals with ventricular arrhythmia (%) ([3]; dose 0.5 mg/kg, intravenously): 29%
Number of animals with ventricular arrhythmia ([3]; dose 0.5 mg/kg, intravenously): 2
Time of occurrence of arrhythmia ([3]; dose 0.5 mg/kg, intravenously): 17 to 20 min

O=C(O)CCCC(=O)N[C@@H](Cc1c[nH]cn1)C(=O)O [Compound III, N^α-glutaryl-L-histidine]
ED50 ([1]; Mus musculus, iv): 0.185 ± 0.083 mg/kg
prevention of atrioventricular heart arrhythmia caused by aconitine nitrate ([1]; mice, administration internally): effectively prevents atrioventricular heart arrhythmia
LD50 [4]: 4500 mg/kg
effect on life span of the test animals [2, 7]: effectively increased the life span
Animals lethal (%) [2, 5]: (86%)
Animals with AV blockage (%) [2, 5]: (29%)
Animals with ventricular arrhythmia (%) [2, 5]: (43%)
Lifetime [2, 5]: 32 ± 7 min
Number of animals in groups lethal [2, 5]: 12
Number of animals in groups with AV blockage [2, 5]: 4*
Number of animals in groups with ventricular arrhythmia [2, 5]: 6*
Animals lethal (%) [2, 6]: (79%)
Animals with AV blockage (%) [2, 6]: (21%)
Animals with ventricular arrhythmia (%) [2, 6]: (29%)
Lifetime [2, 6]: 33 ± 5 min
Number of animals in groups lethal [2, 6]: 11
Number of animals in groups with AV blockage [2, 6]: 3*
Number of animals in groups with ventricular arrhythmia [2, 6]: 4*
effect on experimental lethality [3]: prevented experimental lethality
Animals died in group ([3]; dose 0.05 mg/kg, intravenously): 0
Animals with ventricular arrhythmia (%) ([3]; dose 0.05 mg/kg, intravenously): 25%
Number of animals with ventricular arrhythmia ([3]; dose 0.05 mg/kg, intravenously): 2
Time of occurrence of arrhythmia ([3]; dose 0.05 mg/kg, intravenously): 18 ± 2 min
Animals died in group ([3]; dose 0.5 mg/kg, intravenously): 0
Animals with ventricular arrhythmia (%) ([3]; dose 0.5 mg/kg, intravenously): 17%
Number of animals with ventricular arrhythmia ([3]; dose 0.5 mg/kg, intravenously): 1
Time of occurrence of arrhythmia ([3]; dose 0.5 mg/kg, intravenously): 18 min
anti-arrhythmic effect [3]: had reliable activity

O=C(O)CCCC(=O)NCCc1c[nH]cn1 [Compound IV, glutaryl histamine]
Animals lethal (%) [2, 5]: (79%)
Animals with AV blockage (%) [2, 5]: (21%)
Animals with ventricular arrhythmia (%) [2, 5]: (29%)
Lifetime [2, 5]: 24 ± 3 min
Number of animals in groups lethal [2, 5]: 11
Number of animals in groups with AV blockage [2, 5]: 3*
Number of animals in groups with ventricular arrhythmia [2, 5]: 4*
Animals lethal (%) [2, 6]: (100%)
Animals with AV blockage (%) [2, 6]: (29%)
Animals with ventricular arrhythmia (%) [2, 6]: (14%)
Lifetime [2, 6]: 18 ± 0.8 min
Number of animals in groups lethal [2, 6]: 14
Number of animals in groups with AV blockage [2, 6]: 4*
Number of animals in groups with ventricular arrhythmia [2, 6]: 2*
effect on life span of the test animals ([2]; mouse, in vivo, 0.05 mg/kg): effectively increased the life span

O=C(O)CCCC(=O)NCCc1ccncc1 [Compound IX]
Animals lethal (%) [2, 5]: (80%)
Animals with AV blockage (%) [2, 5]: (100%)
Animals with ventricular arrhythmia (%) [2, 5]: (70%)
Lifetime [2, 5]: 21 ± 6 min
Number of animals in groups lethal [2, 5]: 8
Number of animals in groups with AV blockage [2, 5]: 10
Number of animals in groups with ventricular arrhythmia [2, 5]: 7
Animals lethal (%) [2, 6]: (60%)
Animals with AV blockage (%) [2, 6]: (50%)
Animals with ventricular arrhythmia (%) [2, 6]: (20%)
Lifetime [2, 6]: 32 ± 4 min
Number of animals in groups lethal [2, 6]: 6*
Number of animals in groups with AV blockage [2, 6]: 5
Number of animals in groups with ventricular arrhythmia [2, 6]: 2*

O=C(O)CCCC(=O)NCCc1c[nH]c2ccccc12 [Compound XIII mono-sodium salt]
Animals lethal (%) [2, 5]: (43%)
Animals with AV blockage (%) [2, 5]: (43%)
Animals with ventricular arrhythmia (%) [2, 5]: (36%)
Lifetime [2, 5]: 17 ± 4 min
Number of animals in groups lethal [2, 5]: 6*
Number of animals in groups with AV blockage [2, 5]: 6*
Number of animals in groups with ventricular arrhythmia [2, 5]: 5*
Animals lethal (%) [2, 6]: (36%)
Animals with AV blockage (%) [2, 6]: (29%)
Animals with ventricular arrhythmia (%) [2, 6]: (21%)
Lifetime [2, 6]: 28 ± 9 min
Number of animals in groups lethal [2, 6]: 5*
Number of animals in groups with AV blockage [2, 6]: 4*
Number of animals in groups with ventricular arrhythmia [2, 6]: 3*

O=C(O)CCCC(=O)NCCc1ccccn1 [Compound X]
Animals lethal (%) [2, 5]: (70%)
Animals with AV blockage (%) [2, 5]: (70%)
Animals with ventricular arrhythmia (%) [2, 5]: (60%)
Lifetime [2, 5]: 13 ± 4 min
Number of animals in groups lethal [2, 5]: 7*
Number of animals in groups with AV blockage [2, 5]: 7
Number of animals in groups with ventricular arrhythmia [2, 5]: 6*
Animals lethal (%) [2, 6]: (70%)
Animals with AV blockage (%) [2, 6]: (60%)
Animals with ventricular arrhythmia (%) [2, 6]: (30%)
Lifetime [2, 6]: 27 ± 6 min
Number of animals in groups lethal [2, 6]: 7*
Number of animals in groups with AV blockage [2, 6]: 6
Number of animals in groups with ventricular arrhythmia [2, 6]: 3*

CCCCc1oc2ccccc2c1C(=O)c1cc(I)c(OCCN(CC)CC)c(I)c1 [Cordaron, amiodaron, reference compound]
Animals died in group ([3]; dose 1.0 mg/kg, intravenously): 0
Animals with ventricular arrhythmia (%) ([3]; dose 1.0 mg/kg, intravenously): 40%
Number of animals with ventricular arrhythmia ([3]; dose 1.0 mg/kg, intravenously): 4
Time of occurrence of arrhythmia ([3]; dose 1.0 mg/kg, intravenously): 21 ± 6 min

CC(C)NCC(O)COc1cccc2ccccc12 (stereo not drawn) [Propranolol, propranolol, reference compound]
Animals with AV blockage (%) ([2]; mouse, in vivo, 0.1 mg/kg): (36%)
Animals with ventricular arrhythmia (%) ([2]; mouse, in vivo, 0.1 mg/kg): (29%)
Lifetime ([2]; mouse, in vivo, 0.1 mg/kg): 20 ± 4 min
Number of animals in groups with AV blockage ([2]; mouse, in vivo, 0.1 mg/kg): 5*
Number of animals in groups with ventricular arrhythmia ([2]; mouse, in vivo, 0.1 mg/kg): 4*
Animals with AV blockage (%) ([2]; mouse, in vivo, 0.5 mg/kg): (29%)
Animals with ventricular arrhythmia (%) ([2]; mouse, in vivo, 0.5 mg/kg): (50%)
Lifetime ([2]; mouse, in vivo, 0.5 mg/kg): 23 ± 4 min
Number of animals in groups with AV blockage ([2]; mouse, in vivo, 0.5 mg/kg): 4*
Number of animals in groups with ventricular arrhythmia ([2]; mouse, in vivo, 0.5 mg/kg): 7*
Animals died in group ([3]; dose 1.0 mg/kg, intravenously): 0
Animals with ventricular arrhythmia (%) ([3]; dose 1.0 mg/kg, intravenously): 28%
Number of animals with ventricular arrhythmia ([3]; dose 1.0 mg/kg, intravenously): 2
Time of occurrence of arrhythmia ([3]; dose 1.0 mg/kg, intravenously): 24 ± 1 min
